According to patent US9995734B2, “Human T cell line assay for evaluating the immunologic identity of glatiramer acetate preparations” (Mylan Inc., priority 2013, dated 2018):

Legend:
[1] = tested on: Donor 3 GMA Responsive T Cells; experiment: Cytokine multiplex assay, Donor 3 GMA responsive T cells; type: cell-based, human; settings: culture medium
Protocol: The concentration of multiple cytokines was measured simultaneously using FlowCytoMix™ kits (eBioscience, San Diego Calif.). These are fluorescent bead based assays consisting of beads conjugated to anti cytokine antibodies. Beads specific for each cytokine are distinguished by size and fluorescence at 670 run. Cytokine bound to each bead is detected using a phycoerythrin conjugated antibody so that the fluorescence at 585 nm reflects the concentration of cytokine in the sample. Two kits were utilized which measured different cytokine panels. The TH1/TH2 kit measures IFN-γ, IL-1β, IL-2, IL-4, IL-5, IL-6, IL-8, IL-10, IL-12p70, TNF-α (TNF) and TNF-β (LT). The TH1/TH2/TH9/TH17/TH22 kit measures […], IL-1β, IL-2, IL-4, IL-5, IL-6, IL-9, IL-10, IL-12p70, IL-13, IL-17, IL-22, and TNF-α (TNF). Both kits were used following the manufacturer's instructions.

Donor 1 COP T-Cell Lines = experiment: IFN-γ ELISA, Donor 1 COP T-cell lines; type: cell-based, human; settings: for IFN-γ (ELISA), mean: 10 μg/mL, autologous B-LCL; for IFN-γ production in response to GA: 222-2D8, 222-2E1, 222-2B11, 222-2C3, 222-2B8, 222-2G12, 222-2F12
Protocol: Culture medium was removed from cultures prepared as for proliferation assay and utilized to measure cytokine production. In most cases culture medium was collected 18-24 hours after mixing T-cells, APC, and stimulating antigen. Cytokine production was measured by ELISA or bead assay. For measuring cytokine production, 100-150 μL culture medium (100 μL if culture was to be continued, otherwise 150 μL) was removed from each well. In some cases, the culture was continued 48 hours, for a total of 72 hours of culture, and the proliferative response measured.
IFN-γ concentration in culture supernatants was measured by a sandwich ELISA using two anti-IFN-γ monoclonal antibodies. Clone 2G1 was used for capture, and biotinylated antibody from clone B133.5 was used for detection (both from Endogen). Recombinant IFN-γ was used to construct a standard curve ranging from 1000 to 15 pg/mL.
Based on the increases in ATP level observed (i.e., a ratio of relative luminescence in wells with antigen to control wells without antigen of two or more), fifteen presumptive GA-specific T-cell lines in the original plate were moved to a 24-well plate at Day 26 and restimulated with 10 μg/mL Copaxone in the presence of autologous EBV-transformed B-LCL (5×10^5 per well, i.e., 2.5×10^5/mL). At Day 27 IL-2 was added. On Day 34, the fifteen presumptive lines were restimulated with 10 μg/mL GMA or 10 μg/mL COP in the presence of mitomycin-treated autologous B-LCL (4×10^4 per well; 2×10^5 per mL), or incubated with mitomycin-treated autologous B-LCL and no antigen. On Day 35 IL-2 was added to continued cultures. On Day 36 culture supernatant was collected from test cultures and IFN-γ production measured by ELISA (48 hours after restimulation). IFN-γ protein concentrations were determined using a TMB standard curve.

[2] = 222-1G8, 48 hours, T-cells + B-LCL >1000
[3] = 222-1H12, 48 hours, T-cells + B-LCL >1000
[4] = 222-2B8, 48 hours, T-cells + B-LCL 599
[5] = 222-2B11, 48 hours, T-cells + B-LCL 354
[6] = 222-2C3, 48 hours, T-cells + B-LCL 538
[7] = 222-2D8, 48 hours after restimulation, T-cells + B-LCL 270
[8] = 222-2E1, 48 hours, T-cells + B-LCL 457
[9] = 222-2F12, 48 hours, T-cells + B-LCL 295
[10] = 222-2G12, 48 hours, T-cells + B-LCL 515

glatiramer acetate [COP]
IFN-γ ([1]; T-cell line 165-B5G): 190 pg/mL
IL-4 ([1]; T-cell line 165-B5G): 17 pg/mL
IL-5 ([1]; T-cell line 165-B5G): 374 pg/mL
IL-13 ([1]; T-cell line 165-B5G): 2927 pg/mL
IL-22 ([1]; T-cell line 165-B5G): 106 pg/mL
IFN-γ ([1]; T-cell line 165-D8G): 115 pg/mL
IL-4 ([1]; T-cell line 165-D8G): 14 pg/mL
IL-5 ([1]; T-cell line 165-D8G): 309 pg/mL
IL-13 ([1]; T-cell line 165-D8G): 3121 pg/mL
IL-22 ([1]; T-cell line 165-D8G): 365 pg/mL
IFN-γ ([1]; T-cell line 165-E9G): 638 pg/mL
IL-4 ([1]; T-cell line 165-E9G): 12 pg/mL
IL-5 ([1]; T-cell line 165-E9G): 208 pg/mL
IL-13 ([1]; T-cell line 165-E9G): 1232 pg/mL
IL-22 ([1]; T-cell line 165-E9G): 192 pg/mL
IFN-γ ([1]; T-cell line 165-F8G): 771 pg/mL
IL-4 ([1]; T-cell line 165-F8G): 0 pg/mL
IL-5 ([1]; T-cell line 165-F8G): 297 pg/mL
IL-13 ([1]; T-cell line 165-F8G): 1017 pg/mL
IL-22 ([1]; T-cell line 165-F8G): 198 pg/mL
IFN-γ ([1]; T-cell line 165-F10G): 1165 pg/mL
IL-4 ([1]; T-cell line 165-F10G): 122 pg/mL
IL-5 ([1]; T-cell line 165-F10G): 2586 pg/mL
IL-13 ([1]; T-cell line 165-F10G): 11285 pg/mL
IL-22 ([1]; T-cell line 165-F10G): 686 pg/mL
IFN-γ ([1]; T-cell line 165-H11G): 724 pg/mL
IL-4 ([1]; T-cell line 165-H11G): 9 pg/mL
IL-5 ([1]; T-cell line 165-H11G): 321 pg/mL
IL-13 ([1]; T-cell line 165-H11G): 1095 pg/mL
IL-22 ([1]; T-cell line 165-H11G): 190 pg/mL
IFN-γ (ELISA), mean (Donor 1 COP T-Cell Lines; 222-1C5, 48 hours, T-cells + B-LCL 821, listed as Copaxone): 700 pg/mL
IFN-γ (ELISA), mean (Donor 1 COP T-Cell Lines; 222-1F8, 48 hours, T-cells + B-LCL 120, listed as Copaxone): 156 pg/mL
IFN-γ (ELISA), mean (Donor 1 COP T-Cell Lines; [2]): >1000 pg/mL
IFN-γ (ELISA), mean (Donor 1 COP T-Cell Lines; [3]): >1000 pg/mL
IFN-γ (ELISA), mean (Donor 1 COP T-Cell Lines; [4]): >1000 pg/mL
IFN-γ (ELISA), mean (Donor 1 COP T-Cell Lines; [5]): >1000 pg/mL
IFN-γ (ELISA), mean (Donor 1 COP T-Cell Lines; 222-2C1, 48 hours, T-cells + B-LCL 369, listed as Copaxone): 417 pg/mL
IFN-γ (ELISA), mean (Donor 1 COP T-Cell Lines; [6]): >1000 pg/mL
IFN-γ (ELISA), mean (Donor 1 COP T-Cell Lines; 222-2C5, 48 hours, T-cells + B-LCL 325, listed as Copaxone): 273 pg/mL
IFN-γ (ELISA), mean (Donor 1 COP T-Cell Lines; 222-2D2, 48 hours, T-cells + B-LCL 68, listed as Copaxone): 133 pg/mL
IFN-γ production in response to GA (Donor 1 COP T-Cell Lines): reacted
IFN-γ (ELISA), mean (Donor 1 COP T-Cell Lines; [7]): >1000 pg/mL
IFN-γ (ELISA), mean (Donor 1 COP T-Cell Lines; [8]): >1000 pg/mL
IFN-γ (ELISA), mean (Donor 1 COP T-Cell Lines; [9]): >1000 pg/mL
IFN-γ (ELISA), mean (Donor 1 COP T-Cell Lines; 222-2G4, 48 hours, T-cells + B-LCL 280, listed as Copaxone): 416 pg/mL
IFN-γ (ELISA), mean (Donor 1 COP T-Cell Lines; [10]): >1000 pg/mL

glatiramer acetate [GMA]
IFN-γ ([1]; T-cell line 165-B5G): 201 pg/mL
IL-4 ([1]; T-cell line 165-B5G): 47 pg/mL
IL-5 ([1]; T-cell line 165-B5G): 399 pg/mL
IL-13 ([1]; T-cell line 165-B5G): 2930 pg/mL
IL-22 ([1]; T-cell line 165-B5G): 248 pg/mL
IFN-γ ([1]; T-cell line 165-D8G): 121 pg/mL
IL-4 ([1]; T-cell line 165-D8G): 12 pg/mL
IL-5 ([1]; T-cell line 165-D8G): 309 pg/mL
IL-13 ([1]; T-cell line 165-D8G): 3326 pg/mL
IL-22 ([1]; T-cell line 165-D8G): 405 pg/mL
IFN-γ ([1]; T-cell line 165-E9G): 837 pg/mL
IL-4 ([1]; T-cell line 165-E9G): 6 pg/mL
IL-5 ([1]; T-cell line 165-E9G): 236 pg/mL
IL-13 ([1]; T-cell line 165-E9G): 1499 pg/mL
IL-22 ([1]; T-cell line 165-E9G): 245 pg/mL
IFN-γ ([1]; T-cell line 165-F8G): 889 pg/mL
IL-4 ([1]; T-cell line 165-F8G): 5 pg/mL
IL-5 ([1]; T-cell line 165-F8G): 370 pg/mL
IL-13 ([1]; T-cell line 165-F8G): 1193 pg/mL
IL-22 ([1]; T-cell line 165-F8G): 197 pg/mL
IFN-γ ([1]; T-cell line 165-F10G): 1108 pg/mL
IL-4 ([1]; T-cell line 165-F10G): 114 pg/mL
IL-5 ([1]; T-cell line 165-F10G): 2589 pg/mL
IL-13 ([1]; T-cell line 165-F10G): 10897 pg/mL
IL-22 ([1]; T-cell line 165-F10G): 680 pg/mL
IFN-γ ([1]; T-cell line 165-H11G): 724 pg/mL
IL-4 ([1]; T-cell line 165-H11G): 7 pg/mL
IL-5 ([1]; T-cell line 165-H11G): 320 pg/mL
IL-13 ([1]; T-cell line 165-H11G): 1058 pg/mL
IL-22 ([1]; T-cell line 165-H11G): 201 pg/mL
IFN-γ (ELISA), mean (Donor 1 COP T-Cell Lines; 222-1C5, 48 hours, T-cells + B-LCL 821): 776 pg/mL
IFN-γ (ELISA), mean (Donor 1 COP T-Cell Lines; 222-1F8, 48 hours, T-cells + B-LCL 120): 169 pg/mL
IFN-γ (ELISA), mean (Donor 1 COP T-Cell Lines; [2]): >1000 pg/mL
IFN-γ (ELISA), mean (Donor 1 COP T-Cell Lines; [3]): >1000 pg/mL
IFN-γ (ELISA), mean (Donor 1 COP T-Cell Lines; [4]): >1000 pg/mL
IFN-γ (ELISA), mean (Donor 1 COP T-Cell Lines; [5]): >1000 pg/mL
IFN-γ (ELISA), mean (Donor 1 COP T-Cell Lines; 222-2C1, 48 hours, T-cells + B-LCL 369): 392 pg/mL
IFN-γ (ELISA), mean (Donor 1 COP T-Cell Lines; [6]): >1000 pg/mL
IFN-γ (ELISA), mean (Donor 1 COP T-Cell Lines; 222-2C5, 48 hours, T-cells + B-LCL 325): 245 pg/mL
IFN-γ (ELISA), mean (Donor 1 COP T-Cell Lines; 222-2D2, 48 hours, T-cells + B-LCL 68): 131 pg/mL
IFN-γ production in response to GA (Donor 1 COP T-Cell Lines): reacted
IFN-γ (ELISA), mean (Donor 1 COP T-Cell Lines; [7]): >1000 pg/mL
IFN-γ (ELISA), mean (Donor 1 COP T-Cell Lines; [8]): >1000 pg/mL
IFN-γ (ELISA), mean (Donor 1 COP T-Cell Lines; [9]): >1000 pg/mL
IFN-γ (ELISA), mean (Donor 1 COP T-Cell Lines; 222-2G4, 48 hours, T-cells + B-LCL 280): 438 pg/mL
IFN-γ (ELISA), mean (Donor 1 COP T-Cell Lines; [10]): >1000 pg/mL
